Results reported in US9132140B2, “Boronic acid derivatives and therapeutic uses thereof” (Rempex Pharmaceuticals, Inc., priority 2013, dated 2015).

Columns and labels:
Type in all cases: cell-based, Klebsiella pneumoniae
KPM1110 (NDM, KPC) = system: KPM1110 (NDM, KPC)
Source text: (§1) Several strains simultaneously expressing both class A and class B carbapenemases, which were constructed using conjugation, were also included in the panel.

KP1064 (KPC TEM SHV) = system: KP1064 (KPC TEM SHV)
Source text: as §1

[1] = system: KPM1346 (NDM-1 TEM SHV CTX-M-15 CMY)
Source text: as §1

KP1004 (KPC TEM SHV) = system: KP1004 (KPC TEM SHV)
Source text: as §1

KP1014 (Vim-1, TEM, SHV) = system: KP1014 (Vim-1, TEM, SHV)
Source text: as §1

KPM1108 (NDM, KPC) = system: KPM1108 (NDM, KPC)
Source text: as §1

KP1059 (VIM-1, SHV-11) = system: KP1059 (VIM-1, SHV-11)
Source text: as §1

KP1061 (KPC TEM SHV) = system: KP1061 (KPC TEM SHV)
Source text: as §1

[2] = system: KP1084 (KPC-3, SHV-11, TEM-1)
Source text: as §1

KPM1345 (VIM-1 SHV) = system: KPM1345 (VIM-1 SHV)
Source text: as §1

KPM1109 (NDM, KPC) = system: KPM1109 (NDM, KPC)
Source text: as §1

KP1070 (KPC TEM SHV) = system: KP1070 (KPC TEM SHV)
Source text: as §1

KP1097 (IMP-1 SHV) = system: KP1097 (IMP-1 SHV)
Source text: as §1

KP1054 (VIM-1, SHV-11) = system: KP1054 (VIM-1, SHV-11)
Source text: as §1

KPM1099 (NDM, KPC) = system: KPM1099 (NDM, KPC)
Source text: as §1

KPM1097 (NDM, KPC) = system: KPM1097 (NDM, KPC)
Source text: as §1

KPM1107 (NDM, KPC) = system: KPM1107 (NDM, KPC)
Source text: as §1

## Nn1cnnc1S[C@H]1Cc2cccc(C(=O)O)c2OB1O [Compound 14, (R)-3-(4-amino-4H-1,2,4-triazol-3-ylthio)-2-hydroxy-3,4-dihydro-2H-benzo[e][1,2]oxaborinine-8-carboxylic acid]
KPM1110 (NDM, KPC)
  Imipenem + 14 MIC: X (key: X: MIC of less than 1 μg/mL; Y: MIC of 1 μg/mL to 10 μg/mL; Z: MIC of greater than 10 μg/mL)
  Meropenem + 14 MIC: X (key: X: MIC of less than 1 μg/mL; Y: MIC of 1 μg/mL to 10 μg/mL; Z: MIC of greater than 10 μg/mL)
KP1064 (KPC TEM SHV)
  Imipenem + 14 MIC: X (key: X: MIC of less than 1 μg/mL; Y: MIC of 1 μg/mL to 10 μg/mL; Z: MIC of greater than 10 μg/mL)
  Meropenem + 14 MIC: Y (key: X: MIC of less than 1 μg/mL; Y: MIC of 1 μg/mL to 10 μg/mL; Z: MIC of greater than 10 μg/mL)
[1]
  Imipenem + 14 MIC: Y (key: X: MIC of less than 1 μg/mL; Y: MIC of 1 μg/mL to 10 μg/mL; Z: MIC of greater than 10 μg/mL)
  Meropenem + 14 MIC: Z (key: X: MIC of less than 1 μg/mL; Y: MIC of 1 μg/mL to 10 μg/mL; Z: MIC of greater than 10 μg/mL)
KP1004 (KPC TEM SHV)
  Imipenem + 14 MIC: X (key: X: MIC of less than 1 μg/mL; Y: MIC of 1 μg/mL to 10 μg/mL; Z: MIC of greater than 10 μg/mL)
  Meropenem + 14 MIC: X (key: X: MIC of less than 1 μg/mL; Y: MIC of 1 μg/mL to 10 μg/mL; Z: MIC of greater than 10 μg/mL)
KP1014 (Vim-1, TEM, SHV)
  Imipenem + 14 MIC: X (key: X: MIC of less than 1 μg/mL; Y: MIC of 1 μg/mL to 10 μg/mL; Z: MIC of greater than 10 μg/mL)
  Meropenem + 14 MIC: X (key: X: MIC of less than 1 μg/mL; Y: MIC of 1 μg/mL to 10 μg/mL; Z: MIC of greater than 10 μg/mL)
KPM1108 (NDM, KPC)
  Imipenem + 14 MIC: Y (key: X: MIC of less than 1 μg/mL; Y: MIC of 1 μg/mL to 10 μg/mL; Z: MIC of greater than 10 μg/mL)
  Meropenem + 14 MIC: Z (key: X: MIC of less than 1 μg/mL; Y: MIC of 1 μg/mL to 10 μg/mL; Z: MIC of greater than 10 μg/mL)
KP1059 (VIM-1, SHV-11)
  Imipenem + 14 MIC: Y (key: X: MIC of less than 1 μg/mL; Y: MIC of 1 μg/mL to 10 μg/mL; Z: MIC of greater than 10 μg/mL)
  Meropenem + 14 MIC: Y (key: X: MIC of less than 1 μg/mL; Y: MIC of 1 μg/mL to 10 μg/mL; Z: MIC of greater than 10 μg/mL)
KP1061 (KPC TEM SHV)
  Imipenem + 14 MIC: X (key: X: MIC of less than 1 μg/mL; Y: MIC of 1 μg/mL to 10 μg/mL; Z: MIC of greater than 10 μg/mL)
  Meropenem + 14 MIC: X (key: X: MIC of less than 1 μg/mL; Y: MIC of 1 μg/mL to 10 μg/mL; Z: MIC of greater than 10 μg/mL)
[2]
  Imipenem + 14 MIC: Y (key: X: MIC of less than 1 μg/mL; Y: MIC of 1 μg/mL to 10 μg/mL; Z: MIC of greater than 10 μg/mL)
  Meropenem + 14 MIC: Y (key: X: MIC of less than 1 μg/mL; Y: MIC of 1 μg/mL to 10 μg/mL; Z: MIC of greater than 10 μg/mL)
KPM1345 (VIM-1 SHV)
  Imipenem + 14 MIC: X (key: X: MIC of less than 1 μg/mL; Y: MIC of 1 μg/mL to 10 μg/mL; Z: MIC of greater than 10 μg/mL)
  Meropenem + 14 MIC: X (key: X: MIC of less than 1 μg/mL; Y: MIC of 1 μg/mL to 10 μg/mL; Z: MIC of greater than 10 μg/mL)
KPM1109 (NDM, KPC)
  Imipenem + 14 MIC: X (key: X: MIC of less than 1 μg/mL; Y: MIC of 1 μg/mL to 10 μg/mL; Z: MIC of greater than 10 μg/mL)
  Meropenem + 14 MIC: Y (key: X: MIC of less than 1 μg/mL; Y: MIC of 1 μg/mL to 10 μg/mL; Z: MIC of greater than 10 μg/mL)
KP1070 (KPC TEM SHV)
  Imipenem + 14 MIC: X (key: X: MIC of less than 1 μg/mL; Y: MIC of 1 μg/mL to 10 μg/mL; Z: MIC of greater than 10 μg/mL)
  Meropenem + 14 MIC: X (key: X: MIC of less than 1 μg/mL; Y: MIC of 1 μg/mL to 10 μg/mL; Z: MIC of greater than 10 μg/mL)
KP1097 (IMP-1 SHV)
  Imipenem + 14 MIC: X (key: X: MIC of less than 1 μg/mL; Y: MIC of 1 μg/mL to 10 μg/mL; Z: MIC of greater than 10 μg/mL)
  Meropenem + 14 MIC: Y (key: X: MIC of less than 1 μg/mL; Y: MIC of 1 μg/mL to 10 μg/mL; Z: MIC of greater than 10 μg/mL)
KP1054 (VIM-1, SHV-11)
  Imipenem + 14 MIC: X (key: X: MIC of less than 1 μg/mL; Y: MIC of 1 μg/mL to 10 μg/mL; Z: MIC of greater than 10 μg/mL)
  Meropenem + 14 MIC: X (key: X: MIC of less than 1 μg/mL; Y: MIC of 1 μg/mL to 10 μg/mL; Z: MIC of greater than 10 μg/mL)
KPM1099 (NDM, KPC)
  Imipenem + 14 MIC: Y (key: X: MIC of less than 1 μg/mL; Y: MIC of 1 μg/mL to 10 μg/mL; Z: MIC of greater than 10 μg/mL)
  Meropenem + 14 MIC: Y (key: X: MIC of less than 1 μg/mL; Y: MIC of 1 μg/mL to 10 μg/mL; Z: MIC of greater than 10 μg/mL)
KPM1097 (NDM, KPC)
  Imipenem + 14 MIC: X (key: X: MIC of less than 1 μg/mL; Y: MIC of 1 μg/mL to 10 μg/mL; Z: MIC of greater than 10 μg/mL)
  Meropenem + 14 MIC: X (key: X: MIC of less than 1 μg/mL; Y: MIC of 1 μg/mL to 10 μg/mL; Z: MIC of greater than 10 μg/mL)
KPM1107 (NDM, KPC)
  Imipenem + 14 MIC: X (key: X: MIC of less than 1 μg/mL; Y: MIC of 1 μg/mL to 10 μg/mL; Z: MIC of greater than 10 μg/mL)
  Meropenem + 14 MIC: X (key: X: MIC of less than 1 μg/mL; Y: MIC of 1 μg/mL to 10 μg/mL; Z: MIC of greater than 10 μg/mL)
